Laboratory results taken from article PMC8942850, “Boron clusters as broadband membrane carriers” (Nature, 2022).
Read-outs that look alike come from different tables or passages of the source.

Tests used:
[1] = gold standard in the field; cited from earlier work
From the text: U-tube transport experiments, across a bulk chloroform layer, unambiguously confirmed that the brominated cluster served as a non-covalent carrier across a hydrophobic bulk barrier (Extended Data Fig. 2a, b). To quantitatively characterize the transport efficiency of the new cluster carriers, the normalized fluorescence responses in the vesicle experiments (Fig. 2b) were plotted against cluster concentration to produce dose–response curves (Fig. 2c and Extended Data Fig. 3a). We extracted, by Hill analysis, the salient parameters: the maximal activity (Ymax), the concentration needed to achiev ...

[2] = HPTS/DPX transport assay in zwitterionic EYPC vesicles; type: in vitro ADME; design: key to Et: Et = Ymax × (pEC50/ft); pEC50 = −log EC50
Protocol: The well-established HPTS/DPX assay, which uses 8-hydroxypyrene-1,3,6-trisulfonate (HPTS) and p-xylene-bis-pyridinium (DPX), was implemented to monitor peptide-transport activation (Fig. 2a). […] A surfactant (Triton X-100) was added at the end of the experiment (t = 600 s) to release all vesicle content and normalize the fluorescence intensity data.
Fig. 2 Carrier activity obtained from the HPTS/DPX assay. a, Schematic representation of the transport of otherwise impermeable analytes facilitated by superchaotropic cluster anions with encapsulated HPTS/DPX probe/quencher pair used for signalling. […] Concentrations of carrier and cargo, when fixed, were 40 and 20 µM, respectively, unless explicitly stated. Source data
A thin lipid film was prepared by evaporating a lipid solution with a stream of nitrogen and then dried in vacuo overnight.
Fluorescence intensities were normalized to fractional emission as I(t) = (It − I0)/(I∞ − I0), where I0 = It before cluster addition and I∞ = It after lysis.
In the activator measurements, in which different activators were tested with the same cargo, the activator efficiency (Ea) is determined from their ability to activate the transport of an impermeable cargo molecule and is characterized by Ymax, its maximal activity, and EC50, the effective activator concentration. A potent activator reaches high Ymax at low EC50. To reflect both factors, the activator efficiency is defined as Ea = Ymax × (pEC50/fa), where pEC50 is the negative logarithm of EC50.
In the transport measurements, in which different types of cargo were tested with the same activator, the transport efficiency (Et) reports on the sensitivity of the cargo for being transported and is described by Ymax, the maximal activity, and EC50, the effective cargo concentration. An easily accessible cargo reaches high Ymax at low EC50. The transport efficiency is defined as a composition of both parameters according to Et = Ymax × (pEC50/ft), where pEC50 is the negative logarithm of EC50.
Extended Data Fig. 3 Transport activity. a, Transport activity, Y, in EYPC⊃HPTS/DPX vesicles as a function of cluster concentration at constant cargo concentration (WR7, 20 µM). b, Transport activity, Y, for B12Br12^2− (40 µM) in EYPC⊃HPTS/DPX vesicles as a function of the concentration of different cargo types; red lines correspond to the resulting fit with the Hill equation. Source data

HeLa cells [3] = experiment: Phalloidin-TRITC delivery, confocal imaging of F-actin staining; type: cell-based; conditions: living HeLa cells, HKR buffer, 3 h, 500 nM cargo concentration
Protocol: (§1) Representative images of two biological replicates. […] Scale bars, 50 μm.
Cells were incubated with 7 µM phalloidin-TRITC (red) in the absence (left) and presence of 50 µM ^AcR8 (middle) or 50 µM of B12Br12^2− cluster (right) in HKR buffer for 3 h, subsequently stained with Hoechst (blue), washed with DMEM without phenol red, and imaged by confocal fluorescence microscopy; bright-field images in insets. Micrographs from each cell line were processed independently, experiments were performed twice. e, MTT viability assay of the corresponding cell lines (HeLa, GT1-7, ARPE-19 and A549, from left to right) at different concentrations (0, 25, 75, 250, and 500 µM) of B12Br12^2− (black) or ^AcR8 (red); data are mean ± s.d. of five measurements. f, Confocal images of HeLa cells after incubation with 500 nM phalloidin-TRITC and different concentrations B12Br12^2−; the images correspond to those of Fig. 4 in the main text, but are shown with increased brightness to facilitate observation of the actin filaments. Representative images of two biological replicates. All scale bars are […], except for panel f (50 µm). Source data

HeLa cells [4] = experiment: Confocal imaging of TAMRA-R8 / TAMRA-D-R8 / TAMRA uptake in living cells; conditions: HeLa, 1, 10 or 50 µM TAMRA, 10 µM B12Br12^2− in HKR, 1 h
From the text: as §1
Representative images of two biological replicates. […] Source data
(1 picture or pasted object on this page, not shown here)

[5] = system: Escherichia coli Top10 strain; experiment: Kanamycin A delivery in E. coli (OD570 growth); type: cell-based; conditions: for mean_norm_OD570: LB, 37 °C, 18 h, mean of triplicate
Protocol: As a proof-of-principle, we investigated its potential to reduce the minimum inhibitory concentration of kanamycin A, an aminoglycoside antibiotic. Aminoglycosides function by binding to the bacterial 30S ribosomal subunit; consequently, effective passage through the cell wall and plasma membrane is essential for aminoglycosides to reach their intracellular targets. […]
A preculture of E. coli Top10 cells was incubated overnight in LB medium with 50 µg ml^−1 streptomycin sulfate. […] After 18 h, the optical density at 570 nm, as an indicator of bacterial growth, was measured with a Tecan Infinite F200Pro microplate reader. Data were normalized for each concentration of B12Br12^2− relative to the control condition without antibiotic.
Solid points indicate mean ± s.d. of three technical replicates. […] Cross-bars indicate mean ± s.d. of three independent experiments (two with technical triplicates, one with technical duplicates); values obtained in each experiment are represented by different shapes. c, Viability of HeLa cells after incubation with different doses of MMAF in the presence of 0, 5 and 10 μM B12Br12^2−. Solid points indicate mean ± s.d. of three technical replicates. d, Corresponding IC50 values of MMAF. […] Source data

O=C(O)CCCc1ccc2ccc3cccc4ccc1c2c34 [Pyrenebutyrate (1), pyrenebutyrate, reference compound]
Ea activator efficiency [1]: ≈ 5
Ea activator efficiency ([2]; Ea = Ymax × (pEC50/fa), fa = 20.6, WR7 (20 μM) cargo, 10% error (SD)): 4.9
Activation of oligolysine (WK7) membrane transport ([2]; WK7 cargo, HPTS/DPX assay): fails to trigger any signal
Ymax (%) maximal activity, carrier activity ([2]; carrier concentration varied, WR7 (20 μM) as common cargo, EYPC⊃HPTS/DPX vesicles, 13 µM lipid, 10 mM Tris, 107 mM NaCl, pH 7.4, HPTS fluorescence, Hill analysis, 10% error (SD) unless stated, n.a. = no detectable activity, d.l. = dye leakage, no determination possible): 100%
Activity as activator for the newly introduced targets ([2]; membrane-impermeable analytes (100 µM), HPTS/DPX assay): no activity
EC50 ([2]; read-out: EC50 (μM) effective carrier concentration to reach 50% of Ymax, carrier concentration varied, WR7 (20 μM) as common cargo, EYPC⊃HPTS/DPX vesicles, pH 7.4, Hill analysis, 10% error (SD) unless stated, n.a. = no detectable activity, d.l. = dye leakage, no determination possible): 103 µM

Phalloidin-TRITC
F-actin staining after B12Br12^2−-triggered membrane passage (HeLa cells [3]): excellent staining of the F-actin target

TAMRA [reference compound]
Transport of non-conjugated dye by B12Br12^2− (HeLa cells [4]): not carried

kanamycin A
mean_norm_OD570 ([5]; Kanamycin 3 µg/mL, B12Br12 0, normalised to no-antibiotic control): 68.2744
mean_norm_OD570 ([5]; Kanamycin 3 µg/mL, B12Br12 500 mM, normalised to no-antibiotic control at same B12Br12): 9.048
mean_norm_OD570 ([5]; Kanamycin 3 µg/mL, B12Br12 750 mM, normalised to no-antibiotic control at same B12Br12): 0.7906
mean_norm_OD570 ([5]; Kanamycin 3 µg/mL, B12Br12 1000 mM, normalised to no-antibiotic control at same B12Br12): 0.4633
mean_norm_OD570 ([5]; Kanamycin 2.5 mg/mL, B12Br12 0 (so in the source), normalised to no-antibiotic control): 70.6541
mean_norm_OD570 ([5]; Kanamycin 2.5 mg/mL, B12Br12 500 mM (so in the source), normalised to no-antibiotic control at same B12Br12): 24.7877
mean_norm_OD570 ([5]; Kanamycin 2.5 mg/mL, B12Br12 750 mM (so in the source), normalised to no-antibiotic control at same B12Br12): 9.686
mean_norm_OD570 ([5]; Kanamycin 2.5 mg/mL, B12Br12 1000 mM (so in the source), normalised to no-antibiotic control at same B12Br12): 14.0089
mean_norm_OD570 ([5]; Kanamycin 3.5 mg/mL, B12Br12 0 (so in the source), normalised to no-antibiotic control): 58.481
mean_norm_OD570 ([5]; Kanamycin 3.5 mg/mL, B12Br12 500 mM (so in the source), normalised to no-antibiotic control at same B12Br12): 0.383
mean_norm_OD570 ([5]; Kanamycin 3.5 mg/mL, B12Br12 750 mM (so in the source), normalised to no-antibiotic control at same B12Br12): 0.005219
mean_norm_OD570 ([5]; Kanamycin 3.5 mg/mL, B12Br12 1000 mM (so in the source), normalised to no-antibiotic control at same B12Br12): 0.103
E. coli viability, absence of cluster ([5]; kanamycin A 3.5 µg ml^−1, no B12Br12^2−): 60%
E. coli viability, presence of the cluster carrier ([5]; kanamycin A 3.5 µg ml^−1 with B12Br12^2−): < 1%
Et transport efficiency ([2]; Et = Ymax × (pEC50/ft), ft = 19.8 so that WR7 equals 10.0, B12Br12^2− (40 μM) carrier, 5% error (SD) unless stated): 1.7 ± 0.2
Et ([2]; Fig.2 d, per analyte (cargo)): 1.7
Ymax (%) maximal activity, transport of cargo ([2]; cargo concentration varied, B12Br12^2− (40 μM) as common carrier, EYPC⊃HPTS/DPX vesicles, 13 µM lipid, 10 mM Tris, 107 mM NaCl, pH 7.4, HPTS fluorescence, Hill analysis, 10% error (SD) unless stated, n.t. = no detectable transport): 54 ± 6%
EC50 ([2]; read-out: EC50 (μM) effective cargo concentration to reach 50% of Ymax, cargo concentration varied, B12Br12^2− (40 μM) as common carrier, EYPC⊃HPTS/DPX vesicles, pH 7.4, Hill analysis, 10% error (SD) unless stated, n.t. = no detectable transport): 235 ± 70 µM
